In patent US20120083460A1 (SAN EI GEN F.F.I., INC., priority 2009, published 2012):
“And” between values parts separate entries of the source, which are not always exact repeats. Equal values may be shown once. Read-outs that look alike come from different tables or passages of the source.

Legend:
[1] = Evaluation of the solubility of other flavonoids in water (Experiment Example 2); assay type: physicochemical
Method: The solubility (mg/ml) of each composition in water in terms of the flavonoid was then determined according to the method of Experiment Example 1. The solubility (mg/ml) of the flavonoid itself in water was also determined as a control, and the solubility (fold) was calculated from the relative ratio of the two.

[2] = Evaluation of fading suppressing effect, fluorescent light irradiation (Experiment Example 4); details: final IQC 0.01% (γ-CD alone 0.14%), drink pH 3.1
Method: (§1) Specifically, a colorant-containing acidic drink of the formulation below was prepared. […] The drinks were irradiated with a fluorescent light (BIOTRON LH 300, NK System) or a UV Fade Meter (UV Long-Life Fade Meter FAL-3, Suga Test Instruments Co., Ltd.) for the durations presented in Table 6. Absorbance was measured before and after the irradiation, and the percentage remaining color (%) after the irradiation was calculated. Further, as a control test, a colorant-containing acidic drink was irradiated with the UV Fade Meter or fluorescent light as above without adding anything (no addition), and the percentage remaining color (%) after the irradiation was calculated.

[3] = Absorption in the body: IQC metabolites in plasma after oral administration (Experiment Example 6); assay type: in vivo; details: 375 mg IQC equivalent, person n=1
Method: After 1, 2, and 3 hours from the administration, bloods were collected using heparin as anti-coagulant from the person, and centrifuged to obtain plasmas.
About 29,000 unit/ml β-glucuronidase (20 μl) dissolved in 0.58 M sodium acetate buffer (pH 4.9) was added to the plasma (180 μl), and the mixture was left unattended at 37° C. for 30 min. After adding 1 M AsA/10 mM sodium metaphosphate (50 μl, in terms of phosphoric acid) and 20 μg/ml diosmetin (9 μl), the mixture was frozen at −80° C., and freeze dried overnight. The freeze dried sample was suspended in MeOH (1 ml), and centrifuged at 15,000 rpm for 10 min. The supernatant was concentrated and dried, and dissolved in MeOH (90 μl). After adding 200 mM HCl (90 μl), the solution was centrifuged at 15,000 rpm for 10 min to collect the supernatant. The IQC metabolites quercetin, isorhamnetin, and tamarixetin in the plasma were then quantified by HPLC under the conditions below.

[4] = Evaluation of preservation stability (presence or absence of deposits) in acid and sugar solution (Experiment Example 3); assay type: physicochemical; parameters: key: +: the presence of deposits; −: the absence of deposits; ×: no dissolution in the acid and sugar solution; details: 30 days
Method: Each solution was hot-packed in a 200-ml PET bottle (93° C.). The drink so prepared was allowed to cool, and placed under 50° C., room temperature (25±2° C.), and low-temperature (5° C.) conditions for 30 days. The presence or absence of deposits was then checked by visual inspection.
The drink so prepared was allowed to cool, and placed under 50° C., room temperature (25±2° C.), and low-temperature (5° C.) conditions for 30 days. The presence or absence of deposits was then observed.
In the table, the symbol “+” means the presence of deposits, and “−” the absence of deposits. The symbol “×” means no dissolution in the acid and sugar solution.

[5] = Evaluation of flavor deterioration suppressing effect, sensory evaluation by six panelists (Experiment Example 5); details: drinks of formulations 1 to 7, IQC added as it is, final IQC 0.01%
Method: In the same manner, γ-CD (Wacker Chemical) was added to each drink in a final concentration of 0.14% to prepare a drink that contained γ-CD.
The drinks prepared as above were tested under the severity conditions presented in Table 9, and changes in drink flavor after the test were examined by six panelists in a sensory evaluation. Evaluations were made according to the following criteria on the scale of 1 (stress tested drink (blank) without any addition) to 5 (each drink before the test).
Table 9 presents means values of the scored points evaluated by the six panelists.

[6] = Evaluation of water solubility with α- and β-cyclodextrins (Reference Experiment Example); assay type: physicochemical; details: water (25° C.), method of Experiment Example 1
[7] = Evaluation of fading suppressing effect, UV Fade Meter irradiation (Experiment Example 4); details: final IQC 0.01% (γ-CD alone 0.14%), drink pH 3.1
Method: as §1

[8] = Evaluation of IQC composition solubility in water (Experiment Example 1); assay type: physicochemical; details: for Solubility (in terms of isoquercitrin, mg/ml): water, shaken at 25° C. for 40 hours, solution pH 4.7-5.7 (Table 1)
Method: The Samples were added until they could not be dissolved further and formed deposits. Each solution was shaken at 25° C. for 40 hours, and centrifuged at 9,000 rpm for 10 min to collect the supernatant. The supernatant was appropriately diluted with a 0.1% phosphoric acid aqueous solution, and absorbance (340 nm) was measured.

[9] = Cochineal colorant, fluorescence irradiation 6 D
[10] = Elderberry colorant, fluorescence irradiation 2 D
[11] = Grape juice colorant, fluorescence irradiation 20 D
[12] = Paprika colorant, fluorescence irradiation 1 D
[13] = Purple corn colorant, fluorescence irradiation 1 D
[14] = Purple sweet potato colorant, fluorescence irradiation 8 D
[15] = Red cabbage colorant, fluorescence irradiation 4 D
[16] = Safflower yellow colorant, fluorescence irradiation 4 D
[17] = β-carotene, fluorescence irradiation 6 D
[18] = Cochineal colorant, UV fade meter irradiation 6 H
[19] = Elderberry colorant, UV fade meter irradiation 2 H
[20] = Grape juice colorant, UV fade meter irradiation 20 H
[21] = Paprika colorant, UV fade meter irradiation 3 H
[22] = Purple corn colorant, UV fade meter irradiation 4 H
[23] = Purple sweet potato colorant, UV fade meter irradiation 7 H
[24] = Red cabbage colorant, UV fade meter irradiation 8 H
[25] = Safflower yellow colorant, UV fade meter irradiation 4 H
[26] = β-carotene, UV fade meter irradiation 17 H

O=c1c(O)c(-c2ccc(O)c(O)c2)oc2cc(O)cc(O)c12 [Quercetin, quercetin]
Solubility (fold) (in terms of flavonoids) [1]: 1 fold

C[C@@H]1O[C@@H](O[C@H]2[C@H](Oc3cc(O)c4c(c3)O[C@H](c3ccc(O)cc3)CC4=O)O[C@H](CO)[C@@H](O)[C@@H]2O)[C@H](O)[C@H](O)[C@H]1O [Naringin, naringin]
Solubility (fold) (in terms of flavonoids) [1]: 1 fold

O=c1c(O[C@@H]2O[C@H](CO)[C@@H](O)[C@H](O)[C@H]2O)c(-c2ccc(O)c(O)c2)oc2cc(O)cc(O)c12 [IQC, isoquercitrin]
percentage remaining color (%) [2, 9]: 75.6% | percentage remaining color (%) [2, 10]: 64.5% | percentage remaining color (%) [2, 11]: 91.1% | percentage remaining color (%) [2, 12]: 91.3% | percentage remaining color (%) [2, 13]: 76.4% | percentage remaining color (%) [2, 14]: 76.9% | percentage remaining color (%) [2, 15]: 60.1% | percentage remaining color (%) [2, 16]: 72.8% | percentage remaining color (%) [2, 17]: 71.2% | Isorhamnetin in plasma ([3]; blood collection time 0 h): 0 µg/mL | Quercetin in plasma ([3]; blood collection time 0 h): 0.02 µg/mL | Tamarixetin in plasma ([3]; blood collection time 0 h): 0 µg/mL | Total flavonoid (quercetin, isorhamnetin, tamarixetin) in plasma ([3]; blood collection time 0 h): 0.02 µg/mL | Isorhamnetin in plasma ([3]; blood collection time 1 h): 0 µg/mL | Quercetin in plasma ([3]; blood collection time 1 h): 0.01 µg/mL | Tamarixetin in plasma ([3]; blood collection time 1 h): 0 µg/mL | Total flavonoid (quercetin, isorhamnetin, tamarixetin) in plasma ([3]; blood collection time 1 h): 0.01 µg/mL | Isorhamnetin in plasma ([3]; blood collection time 2 h): 0.02 µg/mL | Quercetin in plasma ([3]; blood collection time 2 h): 0.15 µg/mL | Tamarixetin in plasma ([3]; blood collection time 2 h): 0.06 µg/mL | Total flavonoid (quercetin, isorhamnetin, tamarixetin) in plasma ([3]; blood collection time 2 h): 0.2 µg/mL and 0.22 µg/mL | Isorhamnetin in plasma ([3]; blood collection time 3 h): 0.01 µg/mL | Quercetin in plasma ([3]; blood collection time 3 h): 0.15 µg/mL | Tamarixetin in plasma ([3]; blood collection time 3 h): 0.03 µg/mL | Total flavonoid (quercetin, isorhamnetin, tamarixetin) in plasma ([3]; blood collection time 3 h): 0.20 µg/mL | AUC ([3]; total metabolites in plasma, 0-3 h): 0.34 (μg/ml)·hr | presence or absence of deposits ([4]; pH 6, 50° C., flavonoid concentration 0.05%): − | presence or absence of deposits ([4]; pH 6, Refrigerated (5° C.), flavonoid concentration 0.05%): + | presence or absence of deposits ([4]; pH 6, Room temperature, flavonoid concentration 0.05%): + | presence or absence of deposits ([4]; pH 9, 50° C., flavonoid concentration 0.05%): − | presence or absence of deposits ([4]; pH 9, 50° C., flavonoid concentration 0.10%): − | presence or absence of deposits ([4]; pH 9, Refrigerated (5° C.), flavonoid concentration 0.05%): + | presence or absence of deposits ([4]; pH 9, Refrigerated (5° C.), flavonoid concentration 0.10%): + | presence or absence of deposits ([4]; pH 9, Room temperature, flavonoid concentration 0.05%): − | presence or absence of deposits ([4]; pH 9, Room temperature, flavonoid concentration 0.10%): + | IQC deposits in the prepared drink [5]: deposits were observed within several hours | Solubility (in terms of isoquercitrin, mg/ml) [6]: 0.10 mg/mL | percentage remaining color (%) [7, 18]: 91.1% | percentage remaining color (%) [7, 19]: 70.2% | percentage remaining color (%) [7, 20]: 93.1% | percentage remaining color (%) [7, 21]: 55.8% | percentage remaining color (%) [7, 22]: 59.8% | percentage remaining color (%) [7, 23]: 88.0% | percentage remaining color (%) [7, 24]: 50.8% | percentage remaining color (%) [7, 25]: 71.6% | percentage remaining color (%) [7, 26]: 74.2% | Solubility (fold) (in terms of flavonoids) ([1]; Flavonoid:γ-CD = 1:0 (mole ratio), flavonoid itself = reference 1): 1 fold | upper limit solubility in water ([8]; acidic condition at 25° C.): 0.0102 mass % | Solubility (in terms of isoquercitrin, mg/ml) [8]: 0.1020 mg/mL | Solubility (in terms of isoquercitrin, mg/ml) ([8]; listed as Control): 0.10 mg/mL | Solubility (in terms of isoquercitrin, mg/ml) ([8]; listed as isoquercitrin): 0.102 mg/mL

OC[C@H]1O[C@@H]2O[C@H]3[C@H](O)[C@@H](O)[C@@H](O[C@H]4[C@H](O)[C@@H](O)[C@@H](O[C@H]5[C@H](O)[C@@H](O)[C@@H](O[C@H]6[C@H](O)[C@@H](O)[C@@H](O[C@H]7[C@H](O)[C@@H](O)[C@@H](O[C@H]8[C@H](O)[C@@H](O)[C@@H](O[C@H]9[C@H](O)[C@@H](O)[C@@H](O[C@H]1[C@H](O)[C@H]2O)O[C@@H]9CO)O[C@@H]8CO)O[C@@H]7CO)O[C@@H]6CO)O[C@@H]5CO)O[C@@H]4CO)O[C@@H]3CO [γ-CD, γ-cyclodextrin]
percentage remaining color (%) [2, 9]: 71.5% | percentage remaining color (%) [2, 10]: 66.2% | percentage remaining color (%) [2, 11]: 88.1% | percentage remaining color (%) [2, 12]: 90.3% | percentage remaining color (%) [2, 13]: 69.2% | percentage remaining color (%) [2, 14]: 75.6% | percentage remaining color (%) [2, 15]: 54.0% | percentage remaining color (%) [2, 16]: 69.2% | percentage remaining color (%) [2, 17]: 60.6% | percentage remaining color (%) [7, 18]: 80.8% | percentage remaining color (%) [7, 19]: 65.2% | percentage remaining color (%) [7, 20]: 88.7% | percentage remaining color (%) [7, 21]: 37.6% | percentage remaining color (%) [7, 22]: 36.2% | percentage remaining color (%) [7, 23]: 79.4% | percentage remaining color (%) [7, 24]: 25.1% | percentage remaining color (%) [7, 25]: 62.4% | percentage remaining color (%) [7, 26]: 60.5%

O=c1c(O)c(-c2cc(O)c(O)c(O)c2)oc2cc(O)cc(O)c12 [Myricetin, myricetin]
Solubility (fold) (in terms of flavonoids) [1]: 1 fold
